Experimental data as given in the supplement of paper PMC10307832.

Key:
Test in all cases: relative viability (nuclei count vs DMSO), 5 days (fraction); higher = more cells survive
PAC-1 + Alpelisib = compound: C=CCc1cccc(/C=N/NC(=O)CN2CCN(Cc3ccccc3)CC2)c1O [PAC-1] + Cc1nc(NC(=O)N2CCC[C@H]2C(N)=O)sc1-c1ccnc(C(C)(C)C(F)(F)F)c1 [Alpelisib] (partner 2 µM)
Procedure, shortened: (§1)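 Each reported value is a median over duplicate plates. It expresses relative viability: treated-well nuclei count divided by vehicle-well nuclei count. Lung cancer cell lines in 1536-well plates were dosed by pin tool a day after seeding, alone with one drug or with a fixed anchor-drug dose plus five library-drug doses (not always all listed) in √10 steps, and nuclei were counted after 5 days.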

BMX-IN-1 + Navitoclax = compound: C=CC(=O)Nc1cc(-n2c(=O)ccc3cnc4ccc(-c5ccc(NS(C)(=O)=O)cc5)cc4c32)ccc1C [BMX-IN-1] + CC1(C)CCC(c2ccc(Cl)cc2)=C(CN2CCN(c3ccc(C(=O)NS(=O)(=O)c4ccc(N[C@H](CCN5CCOCC5)CSc5ccccc5)c(S(=O)(=O)C(F)(F)F)c4)cc3)CC2)C1 [Navitoclax] (partner 0.5 µM)
Procedure, shortened: as §1

PAC-1 + Palbociclib = compound: C=CCc1cccc(/C=N/NC(=O)CN2CCN(Cc3ccccc3)CC2)c1O [PAC-1] + CC(=O)c1c(C)c2cnc(Nc3ccc(N4CCNCC4)cn3)nc2n(C2CCCC2)c1=O [Palbociclib] (partner 0.5 µM)
Procedure, shortened: as §1

PAC-1 + Decitabine = compound: C=CCc1cccc(/C=N/NC(=O)CN2CCN(Cc3ccccc3)CC2)c1O [PAC-1] + Nc1ncn([C@H]2C[C@H](O)[C@@H](CO)O2)c(=O)n1 [Decitabine] (partner 2 µM)
Procedure, shortened: as §1

BMX-IN-1 + Tozasertib = compound: C=CC(=O)Nc1cc(-n2c(=O)ccc3cnc4ccc(-c5ccc(NS(C)(=O)=O)cc5)cc4c32)ccc1C [BMX-IN-1] + Cc1cc(Nc2cc(N3CCN(C)CC3)nc(Sc3ccc(NC(=O)C4CC4)cc3)n2)n[nH]1 [Tozasertib] (partner 0.1 µM)
Procedure, shortened: as §1

Cell Line: 201T
- relative viability (PAC-1 + Alpelisib; first compound 0.02 µM): 0.935
- relative viability (PAC-1 + Alpelisib; first compound 0.06325 µM): 1
- relative viability (PAC-1 + Alpelisib; first compound 0.2 µM): 1.03
- relative viability (PAC-1 + Alpelisib; first compound 2 µM): 1.01
- relative viability (BMX-IN-1 + Navitoclax; first compound 0.02 µM): 1.14
- relative viability (BMX-IN-1 + Navitoclax; first compound 0.2 µM): 1.21
- relative viability (BMX-IN-1 + Navitoclax; first compound 0.6325 µM): 1.18
- relative viability (BMX-IN-1 + Navitoclax; first compound 2 µM): 1.2
- relative viability (PAC-1 + Palbociclib; first compound 0.02 µM): 0.347
- relative viability (PAC-1 + Palbociclib; first compound 0.06325 µM): 0.346
- relative viability (PAC-1 + Palbociclib; first compound 0.2 µM): 0.37
- relative viability (PAC-1 + Palbociclib; first compound 2 µM): 0.363
- relative viability (PAC-1 + Decitabine; first compound 0.02 µM): 0.854
- relative viability (PAC-1 + Decitabine; first compound 0.06325 µM): 0.85
- relative viability (PAC-1 + Decitabine; first compound 0.2 µM): 0.836
- relative viability (PAC-1 + Decitabine; first compound 2 µM): 0.861
- relative viability (BMX-IN-1 + Tozasertib; first compound 0.02 µM): 1.17
- relative viability (BMX-IN-1 + Tozasertib; first compound 0.2 µM): 0.997
- relative viability (BMX-IN-1 + Tozasertib; first compound 0.6325 µM): 0.953
- relative viability (BMX-IN-1 + Tozasertib; first compound 2 µM): 0.896

Cell Line: A549
- relative viability (PAC-1 + Alpelisib; first compound 0.02 µM): 0.718
- relative viability (PAC-1 + Alpelisib; first compound 0.06325 µM): 0.727
- relative viability (PAC-1 + Alpelisib; first compound 0.2 µM): 0.694
- relative viability (PAC-1 + Alpelisib; first compound 2 µM): 0.707
- relative viability (BMX-IN-1 + Navitoclax; first compound 0.02 µM): 1.5
- relative viability (BMX-IN-1 + Navitoclax; first compound 0.2 µM): 1.44
- relative viability (BMX-IN-1 + Navitoclax; first compound 0.6325 µM): 1.37
- relative viability (BMX-IN-1 + Navitoclax; first compound 2 µM): 1.17
- relative viability (PAC-1 + Decitabine; first compound 0.02 µM): 0.342
- relative viability (PAC-1 + Decitabine; first compound 0.06325 µM): 0.267
- relative viability (PAC-1 + Decitabine; first compound 0.2 µM): 0.138
- relative viability (PAC-1 + Decitabine; first compound 2 µM): 0.253

Cell Line: A-427
- relative viability (PAC-1 + Alpelisib; first compound 0.02 µM): 1.17
- relative viability (PAC-1 + Alpelisib; first compound 0.06325 µM): 1.08
- relative viability (PAC-1 + Alpelisib; first compound 0.2 µM): 1.05
- relative viability (PAC-1 + Alpelisib; first compound 2 µM): 1.05
- relative viability (BMX-IN-1 + Navitoclax; first compound 0.02 µM): 1.04
- relative viability (BMX-IN-1 + Navitoclax; first compound 0.2 µM): 0.987
- relative viability (BMX-IN-1 + Navitoclax; first compound 0.6325 µM): 0.971
- relative viability (BMX-IN-1 + Navitoclax; first compound 2 µM): 1.01
- relative viability (PAC-1 + Palbociclib; first compound 0.02 µM): 0.574
- relative viability (PAC-1 + Palbociclib; first compound 0.06325 µM): 0.548
- relative viability (PAC-1 + Palbociclib; first compound 0.2 µM): 0.549
- relative viability (PAC-1 + Palbociclib; first compound 2 µM): 0.507
- relative viability (PAC-1 + Decitabine; first compound 0.02 µM): 0.602
- relative viability (PAC-1 + Decitabine; first compound 0.06325 µM): 0.56
- relative viability (PAC-1 + Decitabine; first compound 0.2 µM): 0.532
- relative viability (PAC-1 + Decitabine; first compound 2 µM): 0.542
- relative viability (BMX-IN-1 + Tozasertib; first compound 0.02 µM): 0.183
- relative viability (BMX-IN-1 + Tozasertib; first compound 0.2 µM): 0.182
- relative viability (BMX-IN-1 + Tozasertib; first compound 0.6325 µM): 0.21
- relative viability (BMX-IN-1 + Tozasertib; first compound 2 µM): 0.2

Cell Line: ABC-1
- relative viability (PAC-1 + Alpelisib; first compound 0.02 µM): 1.11
- relative viability (PAC-1 + Alpelisib; first compound 0.06325 µM): 1.06
- relative viability (PAC-1 + Alpelisib; first compound 0.2 µM): 1.1
- relative viability (PAC-1 + Alpelisib; first compound 2 µM): 1.28
- relative viability (PAC-1 + Palbociclib; first compound 0.02 µM): 0.63
- relative viability (PAC-1 + Palbociclib; first compound 0.06325 µM): 0.742
- relative viability (PAC-1 + Palbociclib; first compound 0.2 µM): 0.678
- relative viability (PAC-1 + Palbociclib; first compound 2 µM): 0.638
- relative viability (PAC-1 + Decitabine; first compound 0.02 µM): 0.809
- relative viability (PAC-1 + Decitabine; first compound 0.06325 µM): 1.06
- relative viability (PAC-1 + Decitabine; first compound 0.2 µM): 1.05
- relative viability (PAC-1 + Decitabine; first compound 2 µM): 1.16
- relative viability (BMX-IN-1 + Tozasertib; first compound 0.02 µM): 0.199
- relative viability (BMX-IN-1 + Tozasertib; first compound 0.2 µM): 0.162
- relative viability (BMX-IN-1 + Tozasertib; first compound 0.6325 µM): 0.145
- relative viability (BMX-IN-1 + Tozasertib; first compound 2 µM): 0.172
